Measurements published in ChEMBL document CHEMBL1136867, “2009 Edward E Smissman Award. Pharmaceutical "gold" from neurostabilizing agents: topiramate and successor molecules” (J Med Chem, 2009).
pIC50: −log10 of the molar value.

Biological target: Carbonic anhydrase 2 (Homo sapiens, UniProt P00918)
Experiment: Inhibition of human carbonic anhydrase 2

NS(=O)(=O)NCc1csc2ccccc12
pIC50: 3.96
